# Laboratory results reported in US9643946B2, “Tricyclic compound and use thereof” (SK CHEMICALS CO., LTD., priority 2013, dated 2017).
# Biological target: human GPR40 protein (Homo sapiens, UniProt O14842)
# Assay: GPR40 agonist binding inhibition (displacement of 3H-labeled propanoic acid radioligand)
# Conditions: membrane protein including human GPR40, 3H-labeled propanoic acid radioligand, 25° C., 2 hours; read-out: Half maximal inhibitory concentration
# Description: Measurement of 50% Inhibitory Concentration (ID50) for GPR40 Agonist Binding
# To examine the efficacy of the compounds according to one exemplary embodiment of the present invention in modulating GPR40, the half maximal inhibitory concentrations (IC50) of the compounds according to one exemplary embodiment of the present invention were measured by Microbeta2™ (PerkinElmer Inc.) using a change in radiation dose emitted from ^3H-labeled propanoic acid (i.e., 3-(4-((2,6′-dimethyl-6-((4-(^3H))-phenylmethoxy)biphenyl-3-yl)methoxy)phenyl)propanoic acid), which is a radioactive isotope which binds to a human GPR40 protein, as an indicator.
# Specifically, a test compound was prepared by serial dilution with DMSO, and 100 μL of a binding buffer (including 25 mM HEPES (pH 7.5), 5 mM MgCl2, 100 mM NaCl, and 0.1% free fatty acid BSA; Sigma-Aldrich Corp.) was put into each well of a 96-well transparent plate. Thereafter, each of the diluted compound, propanoic acid which was prepared by dissolving propanoic acid in DMSO to a concentration of 500 mM and not labeled with a radioactive isotope, and DMSO was dispensed at 5 μL per well. ^3H-labeled propanoic acid was dissolved in a binding buffer at a concentration of 1 nM and dispensed at 50 μL into the corresponding wells, and a membrane protein including a human GPR40 protein was dissolved in a binding buffer at a concentration of 20 μg/well and dispensed at 100 μL, into the corresponding wells.
# After the dispensation was completed, the plate was incubated at a temperature of 25° C. and a rotary speed of 230 rpm for 2 hours while shaking. A human GPR40 complex was transferred to Filtermat A (PerkinElmer Inc.) using a cell harvester (PerkinElmer Inc.), washed 10 times with 50 mM tris-HCl, dried, and then scintillated using Meltilex (PerkinElmer Inc.). Thereafter, an emitted radiation dose was measured using Microbeta2™. The radiation doses emitted from the complex in the well containing 10 mM unlabeled propanoic acid and the complex in the well containing DMSO alone were set as 0% and 100%, respectively. Thus, a change curve for each of the radiation doses was plotted to calculate the half maximal inhibitory concentration of the test compound.
# Chain of human GPR40 protein (O14842 whole entry): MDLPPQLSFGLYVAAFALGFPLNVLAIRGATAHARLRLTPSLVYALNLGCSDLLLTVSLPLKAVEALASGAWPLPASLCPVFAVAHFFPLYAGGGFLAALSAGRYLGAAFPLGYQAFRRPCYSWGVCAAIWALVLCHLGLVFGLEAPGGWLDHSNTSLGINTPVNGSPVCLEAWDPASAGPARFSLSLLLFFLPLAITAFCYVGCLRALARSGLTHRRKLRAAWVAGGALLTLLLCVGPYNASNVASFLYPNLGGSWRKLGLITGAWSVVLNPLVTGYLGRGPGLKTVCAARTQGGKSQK
row,SMILES,IC50 [nM]
1,"Cc1cc(OCC2CCS(=O)(=O)CC2)cc2c1-c1cc(COc3ccc4c(c3)OC[C@H]4CC(=O)O)ccc1OCC2 [Example 47, 2-((3S)-6-((9-((1,1-dioxidotetrahydro-2H-thiopyran-4-yl)methoxy)-11-methyl-6,7-dihydrodibenzo[b,d]oxepin-2-yl)methoxy)-2,3-dihydrobenzofuran-3-yl)acetic acid]",53.1
2,"Cc1nc(N2CCOCC2)nc2c1-c1cc(COc3ccc4c(c3)OC[C@H]4CC(=O)O)ccc1CCC2 [Example 81, 2-((3S)-6-((1-methyl-3-morpholino-6,7-dihydro-5H-benzo[3,4]cyclohepta[1,2-d]pyrimidin-10-yl)methoxy)-2,3-dihydrobenzofuran-3-yl)acetic acid]",181
3,"CC1(COc2ccc3c(c2)CCCc2ccc(COc4ccc5c(c4)OC[C@H]5CC(=O)O)cc2-3)CCS(=O)(=O)CC1 [Example 93, (S)-2-(6-((9-((4-methyl-1,1-dioxidotetrahydro-2H-thiopyran-4-yl)methoxy)-6,7-dihydro-5H-dibenzo[a,c][7]annulen-2-yl)methoxy)-2,3-dihydrobenzofuran-3-yl)acetic acid]",50.5
4,"CC#C[C@@H](CC(=O)O)c1ccc(OCc2ccc3c(c2)-c2ccc(OCC4CCS(=O)(=O)CC4)cc2CCC3)cc1 [Example 109, (S)-3-(4-((9-((1,1-dioxidotetrahydro-2H-thiopyran-4-yl)methoxy)-6,7-dihydro-5H-dibenzo[a,c][7]annulen-2-yl)methoxy)phenyl)hex-4-ynoic acid]",5.6
5,"O=C(O)C[C@@H]1COc2cc(OCc3ccc4c(c3)-c3ccc(OCC5(O)CCS(=O)(=O)CC5)cc3CCC4)ccc21 [Example 65, (S)-2-(6-((9-((4-hydroxy-1,1-dioxidotetrahydro-2H-thiopyran-4-yl)methoxy)-6,7-dihydro-5H-dibenzo[a,c][7]annulen-2-yl)methoxy)-2,3-dihydrobenzofuran-3-yl)acetic acid]",160
6,"CCN1CCc2cc(OCCCS(C)(=O)=O)ccc2-c2cc(COc3ccc4c(c3)OC[C@H]4CC(=O)O)ccc21 [Example 44, (S)-2-(6-((5-ethyl-9-(3-(methylsulfonyl)propoxy)-6,7-dihydro-5H-dibenzo[b,d]azepin-2-yl)methoxy)-2,3-dihydrobenzofuran-3-yl)acetic acid]",75.7

# Now from value to compound:
row,IC50 [nM],SMILES
1,125,"CCS(=O)(=O)CCCOc1cc(C)c2c(c1)CCOc1ccc(COc3ccc([C@H]4C[C@@H]4C(=O)O)c(F)c3)cc1-2 [Example 41, (1S,2S)-2-(4-((9-(3-(ethylsulfonyl)propoxy)-11-methyl-6,7-dihydrodibenzo[b,d]oxepin-2-yl)methoxy)-2-fluorophenyl)cyclopropanecarboxylic acid]"
2,103,"CS(=O)(=O)CCCOc1ccc2c(c1)CCCc1ccc(COc3ccc([C@H]4C[C@@H]4C(=O)O)cc3)cc1-2 [Example 25, (1S,2S)-2-(4-((9-(3-(methylsulfonyl)propoxy)-6,7-dihydro-5H-dibenzo[a,c][7]annulen-2-yl)methoxy)phenyl)cyclopropanecarboxylic acid]"
3,39.1,"CCS(=O)(=O)CCCOc1cc(C)c2c(c1)CCOc1ccc(COc3ccc4c(c3)OC[C@H]4CC(=O)O)cc1-2 [Example 38, 2-((3S)-6-((9-(3-(ethylsulfonyl)propoxy)-11-methyl-6,7-dihydrodibenzo[b,d]oxepin-2-yl)methoxy)-2,3-dihydrobenzofuran-3-yl)acetic acid]"
4,45.7,"Cc1cc(OCCCS(C)(=O)=O)cc2c1-c1cc(COc3ccc([C@H]4C[C@@H]4C(=O)O)cc3)ccc1CC2 [Example 31, (1S,2S)-2-(4-((5-methyl-7-(3-(methylsulfonyl)propoxy)-9,10-dihydrophenanthren-3-yl)methoxy)phenyl)cyclopropanecarboxylic acid]"
5,17.7,"Cc1cc(OCCCS(C)(=O)=O)cc2c1-c1cc(COc3ccc4c(c3)OC[C@H]4CC(=O)O)ccc1OCC2 [Example 14, 2-((3S)-6-((11-methyl-9-(3-(methylsulfonyl)propoxy)-6,7-dihydrodibenzo[b,d]oxepin-2-yl)methoxy)-2,3-dihydrobenzofuran-3-yl)acetic acid]"
6,16.2,"CCS(=O)(=O)CCCOc1ccc2c(c1)CCCc1cc(F)c(CNc3ccc([C@H]4C[C@@H]4C(=O)O)cc3)cc1-2 [Example 105, (1S,2S)-2-(4-(((9-(3-(ethylsulfonyl)propoxy)-3-fluoro-6,7-dihydro-5H-dibenzo[a,c][7]annulen-2-yl)methyl)amino)phenyl)cyclopropanecarboxylic acid]"
7,84.4,"C[C@@H]1Cc2cc(OCCCS(C)(=O)=O)ccc2-c2cc(COc3ccc4c(c3)OC[C@H]4CC(=O)O)ccc2O1 [Example 79, 2-((S)-6-(((R)-6-methyl-9-(3-(methylsulfonyl)propoxy)-6,7-dihydrodibenzo[b,d]oxepin-2-yl)methoxy)-2,3-dihydrobenzofuran-3-yl)acetic acid]"
8,26.6,"CCS(=O)(=O)CCCOc1cc(C)c2c(c1)CCCc1ccc(COc3ccc([C@H]4C[C@@H]4C(=O)O)cc3)cc1-2 [Example 61, (1S,2S)-2-(4-((9-(3-(ethylsulfonyl)propoxy)-11-methyl-6,7-dihydro-5H-dibenzo[a,c][7]annulen-2-yl)methoxy)phenyl)cyclopropanecarboxylic acid]"
9,158,"Cc1cc(OCCCS(C)(=O)=O)cc2c1-c1cccc(COc3ccc4c(c3)OC[C@H]4CC(=O)O)c1CCC2 [Example 1, 2-((3S)-6-((11-methyl-9-(3-(methylsulfonyl)propoxy)-6,7-dihydro-5H-dibenzo[a,c][7]annulen-4-yl)methoxy)-2,3-dihydrobenzofuran-3-yl)acetic acid]"
10,14.7,"Cc1cc(OC2CCS(=O)(=O)CC2)cc2c1-c1cc(CNc3ccc([C@H]4C[C@@H]4C(=O)O)cc3)ccc1CCC2 [Example 76, (1S,2S)-2-(4-(((9-((1,1-dioxidotetrahydro-2H-thiopyran-4-yl)oxy)-11-methyl-6,7-dihydro-5H-dibenzo[a,c][7]annulen-2-yl)methyl)amino)phenyl)cyclopropanecarboxylic acid]"
11,752,"CS(=O)(=O)CCCOc1ccc2c(c1)COCc1ccc(CNc3ccc([C@H]4C[C@@H]4C(=O)O)cc3)cc1-2 [Example 18, (1S,2S)-2-(4-(((9-(3-(methylsulfonyl)propoxy)-5,7-dihydrodibenzo[c,e]oxepin-2-yl)methyl)amino)phenyl)cyclopropanecarboxylic acid]"
12,71,"Cc1cc(OC2CCS(=O)(=O)CC2)cc2c1-c1cc(COc3ccc([C@H]4C[C@@H]4C(=O)O)cc3)ccc1CCC2 [Example 59, (1S,2S)-2-(4-((9-((1,1-dioxidotetrahydro-2H-thiopyran-4-yl)oxy)-11-methyl-6,7-dihydro-5H-dibenzo[a,c][7]annulen-2-yl)methoxy)phenyl)cyclopropanecarboxylic acid]"

# System: male ZFDM rats
# Assay: Hypoglycemic rate after oral glucose loading in rats
# Type: in vivo, rat
# Conditions: oral 0.1 to 30 mg/kg one hour before glucose loading (1.5 g/kg), blood glucose AUC 0 to 120 minutes versus control
# Description: Measurement of Hypoglycemic Rate in Rats
# An effect of the compound according to one exemplary embodiment of the present invention on blood glucose inhibition after glucose loading was examined in male ZFDM rats (Japan SLC, Inc.).
# Specifically, male ZFDM rats (7 week-old) pre-fed for a week were fasted overnight, and used as an animal to be tested. A test compound was prepared into a 0.5% methylcellulose suspension, which was orally administered to rats at a dose of 0.1 to 30 mg/kg before an hour of glucose loading (1.5 g/kg). As the control, 0.5% methylcellulose was administered. After the glucose administration, blood was drawn from the rats' tails after 0, 15, 30, 60 and 120 minutes to measure a blood glucose level. The area under the curve (AUC) for compound treatment was calculated using a blood glucose change profile from t=0 to 120 minutes, and a hypoglycemic rate (%) for the control was calculated.
row,SMILES,Hypoglycemic rate [%]
1,"CC#C[C@@H](CC(=O)O)c1ccc(OCc2ccc3c(c2)-c2ccc(OCCCS(C)(=O)=O)cc2CCC3)cc1 [Example 108, (S)-3-(4-((9-(3-(methylsulfonyl)propoxy)-6,7-dihydro-5H-dibenzo[a,c][7]annulen-2-yl)methoxy)phenyl)hex-4-ynoic acid]",37.5
2,"Cc1cc(OCCCS(C)(=O)=O)cc2c1-c1cc(COc3ccc4c(c3)OC[C@H]4CC(=O)O)ccc1OC2 [Example 26, (S)-2-(6-((10-methyl-8-(3-(methylsulfonyl)propoxy)-6H-benzo[c]chromen-2-yl)methoxy)-2,3-dihydrobenzofuran-3-yl)acetic acid]",31.0
3,"CCS(=O)(=O)CCCOc1cc(C)c2c(c1)CCCc1ccc(COc3ccc4c(c3)OC[C@H]4CC(=O)O)cc1-2 [Example 57, 2-((3S)-6-((9-(3-(ethylsulfonyl)propoxy)-11-methyl-6,7-dihydro-5H-dibenzo[a,c][7]annulen-2-yl)methoxy)-2,3-dihydrobenzofuran-3-yl)acetic acid]",21.7
